Assay results published in patent US12146185B2, “Genetic markers for enhancing efficacy of antipsychotic treatment with iloperidone” (Vanda Pharmaceuticals Inc., priority 2018, dated 2024).

Test system: schizophrenia patients
Test: Genome-wide association study of iloperidone efficacy (PANSS-T) in a randomized, double-blind, placebo- and ziprasidone-controlled 28-day study
Type: in vivo, human
Details: for Genotype associated with lower treatment effect: PANSS-T
Description: A genome-wide association study (GWAS) is performed to improve understanding of the pharmacogenomic basis of response to iloperidone treatment of schizophrenia patients. In the GWAS, genotypes of 205 patients are utilized to evaluate treatment with iloperidone. Linear regression is used to directly test the association between single nucleotide polymorphisms (SNPs) and PANSS-T (day 28), correcting for essential covariates including principal components.
Patients 18-65 years of age with diagnoses of schizophrenia according to the Diagnostic and Statistical Manual of Mental Disorders, 4th Edition are eligible to participate in a randomized, double-blind, placebo- and ziprasidione-controlled, 28-day study of the efficacy and safety of iloperidone. Patients are randomly assigned to iloperidone 12 mg bid, ziprasidone 80 mg bid (active control), or placebo. The primary efficacy variable is change from baseline to the last scheduled observation in PANSS-T using the data from the short-term, double-blind phase. A secondary objective is to identify genetic markers predictive of response to iloperidone. Blood samples are collected, and DNA is extracted from patients who consented to the optional GWAS.
Three analyses of the PANSS-T are conducted: 1) A two-step approach where samples are randomly split into 2 groups of iloperidone-treated patients used to discover SNPs associated with change in PANSS-T (Discovery phase) and a second group to confirm the 100 most significant SNPs (Confirmatory phase). 2) A one-step approach using the Last Observation Carried Forward (LOCF) PANSS-T data of all iloperidone-treated patients. For each SNP, the most parsimonious genetic model (e.g., homozygous for one allele v. all other genotypes [i.e., AA v. AB and BB], heterozygous v. homozygous [i.e., AB v. AA and BB]) was established with respect to iloperidone efficacy using a one-way analysis of variance (ANOVA). 3) A Mixed-effects Model Repeated Measures (MMRM) analysis was subsequently conducted using the best genetic model of each SNP in the MMRM model. MMRM analyses were also conducted with the PANSS subscales PANSS-P, PANSS-N, and PANSS-GP.
The SNPs with a statistically significant association in all 3 analyses of PANSS-T, as well as the best of each analysis are considered significant findings and are listed below in Table 3.
A logistic regression is conducted based on binary cutoffs at PANSS-T≥30 and on the top ends of the distribution logistic model, splitting the data set into two groups: robust responders (i.e., responders having PANSS_T change≥30) and weak responders (i.e., responders having PANSS-T change<20). A significant GRM8 signal is observed in allelic tests conducted, that is, linear association is observed with PANSS-T day 28, logistic model with tot change>=30 vs weak (<20) and logistic association with high and low PANSS-T.

COc1cc(C(C)=O)ccc1OCCCN1CCC(c2noc3cc(F)ccc23)CC1 [iloperidone, 1-[4-[3-[4-(6-fluoro-1,2-benzisoxazol-3-yl)-1-piperidinyl]propoxy]-3-methoxyphenyl]ethanone]
Genotype associated with lower treatment effect (GRIP1 rs11176436): nonTT
Genotype associated with lower treatment effect (GRM8 rs2299503): nonAA
Genotype associated with lower treatment effect (GRM8 rs11763603): nonCC
Genotype associated with lower treatment effect (GRM8 rs13222700): nonTT
Genotype associated with lower treatment effect (NRXN3 rs17109739): nonCC
Genotype associated with lower treatment effect (NTRK2 rs7049108): nonGG
Genotype associated with lower treatment effect (SHANK2 rs579298): nonTT
iloperidone treatment effect as measured by PANSS-T by rs13222700 genotype (TT (homozygous minor allele) vs GT or GG, iloperidone 12 mg bid, PANSS-T day 28, FIG. 1): significantly higher treatment effect
iloperidone treatment effect as measured by PANSS-T change by rs13222700 genotype (TT vs GT or GG, iloperidone 12 mg bid, FIG. 3): significantly larger change in PANSS-T score
P of association of GRM8 variant rs13222700 with iloperidone efficacy (top locus of association analyses, chromosome 7): < 1×10^−5
